{
  "source": "patent US20150290105A1",
  "about": "“COMPOSITION COMPRISING SYRINGARESINOL FOR IMPROVING THE SKIN” (AMOREPACIFIC CORPORATION, priority 2011, published 2015)",
  "key": {"[1]": {"assay": "Skin whitening effect when orally administered, UV-irradiated brown guinea pig", "format": "in vivo", "conditions": "1% in feed, 5 weeks, oral", "procedure": "Minimal erythemal dose was measured after irradiating UV to guinea pigs. After grouping the guinea pigs with 10 per each group, UV of the minimal erythemal dose was irradiated once a day, for a total of 3 times. The guinea pigs were allowed free access to feed for 5 weeks. The feed contained 1% syringaresinol or 1% vitamin C (Vit C) as a positive control. Skin pigmentation was measure using a colorimeter in substantially the same manner as in Test Example 6."}, "[2]": {"test_system": "MMP-9", "assay": "UV-induced MMP-9 expression in human keratinocytes (western blot)", "format": "cell-based", "conditions": "HaCaT cells, 50 μM, UVB 30 mJ/cm^2, FIG. 6", "procedure": "(§1) Human keratinocyte HaCaT cells were cultured in substantially the same manner as in Test Example 10.\nThe cultured cells were treated with trypsin to obtain a single-cell suspension. Then, the cells were distributed in a 6-well plate, with 2×10^5 cells per well, and cultured for 24 hours. Subsequently, after replacing the medium with DMEM not containing fetal bovine serum and culturing again for 24 hours, the cells were treated with 50 μM syringaresinol dissolved in DMSO. After treating for 24 hours, the cells were washed with PBS and UVB of 30 mJ/cm^2 was irradiated in PBS. After discarding the PBS, the cells were added to a medium containing syringaresinol of the same concentration. As a control group, the cells were cultured in the same manner without treating with syringaresinol. […] Then, after centrifuging at 4° C. for 10 minutes with 15,000 g, the supernatant was recovered and protein was quantitated using Bio-Rad Protein Dye ReagentTM. […] Bands on the film were scanned with PowerLook 2100 XL (UMAX) and analyzed with the image-analyzing program ImageMaster 2D Elite (Amersham Bioscience)."}, "[3]": {"assay": "Transepidermal water loss (TEWL) in hairless mouse", "format": "in vivo, hairless mice (SKH: HR-1)", "conditions": "3 weeks, FIG. 8", "procedure": "30-week-old female hairless mice (SKH: HR-1) weighing 25-39 g were purchased from Charles River Laboratories (Wilmington, Mass., USA). The mice were accustomed to the laboratory environment for a week and then grouped into normal groups and test substance-treated groups, with 5 mice per each group. The mice were allowed free access to water and feed under the condition of 12-hour light/dark cycles, 23.2° C. and 55.10% humidity. For the test substance-treated groups, a patch of 1% syringaresinol dissolved in a solvent (1,3-butylene glycol:ethanol=7:3) was applied 2 times for 2 days or 200 mg/kg syringaresinol was orally administered. The control groups were treated in the same way using the solvent of the same amount instead of syringaresinol. […] Before and after the UV radiation, skin wrinkles on the exposed part were taken with replica and measured using the Visiometer system (C+K). 3 weeks after the onset of experiment, transepidermal water loss (TEWL) was measured on the back part of the hairless mouse of each group using a wireless vapometer (Delfin Technologies, Ltd., SWL 4102). […] Transepidermal water loss is the quantity of water that passes from inside the body through the skin and a larger value means poor skin moisturization ability and damaged skin barrier function. […]"}, "[4]": {"assay": "Free radical scavenging ability (DPPH)", "conditions": "37° C. 30 minutes, FIG. 2", "procedure": "A radical solution was prepared by dissolving 100 µM diphenylpicrylhydrazyl (DPPH), composed of stable free radicals, in 99% ethanol. A reaction solution was prepared by dissolving syringaresinol in distilled water with different concentrations (pg/mL) and mixing the syringaresinol solution with the radical solution. A reaction solution not containing syringaresinol was used as a negative control and a reaction solution containing vitamin C (Vit C) was used as a positive control. After sufficiently reacting at 37° C. for 30 minutes, radical scavenging ability was evaluated by measuring absorbance at 515 nm. The radical scavenging ability was calculated relative to the negative control group as 100."}, "[5]": {"assay": "Skin wrinkle formation after UVB in hairless mouse", "format": "in vivo, hairless mice (SKH: HR-1)", "conditions": "UVB 180 mJ/cm^2", "procedure": "30-week-old female hairless mice (SKH: HR-1) weighing 25-39 g were purchased from Charles River Laboratories (Wilmington, Mass., USA). The mice were accustomed to the laboratory environment for a week and then grouped into normal groups and test substance-treated groups, with 5 mice per each group. The mice were allowed free access to water and feed under the condition of 12-hour light/dark cycles, 23.2° C. and 55.10% humidity.\nFor the test substance-treated groups, a patch of 1% syringaresinol dissolved in a solvent (1,3-butylene glycol:ethanol=7:3) was applied 2 times for 2 days or 200 mg/kg syringaresinol was orally administered. The control groups were treated in the same way using the solvent of the same amount instead of syringaresinol. The syringaresinol-applied group, syringaresinol oral administration group and control groups were exposed to UVB of 180 mJ/cm^2. Before and after the UV radiation, skin wrinkles on the exposed part were taken with replica and measured using the Visiometer system (C+K).\nChange (%)=[(Tdi−Tdo)/(Tdo)]×100 [Equation 4]\nTdi: value measured after UV radiation\nTdo: value measured before UV radiation"}, "[6]": {"test_system": "filaggrin", "assay": "Filaggrin expression promoting effect in human keratinocytes", "format": "cell-based", "conditions": "HaCaT cells, FIG. 5", "procedure": "as §1\ncDNA was synthesized in substantially the same manner as in Test Example 10 and the expression pattern of the filaggrin, involucrin and GAPDH genes was monitored substantially the same manner as in Test Example 10 using the synthesized cDNA and predesigned primers and probes (Applied Biosystems; […]; GAPDH, Hs99999905_ml)."}},
  "data": [
    {"smiles": "COc1cc(C2OCC3C(c4cc(OC)c(O)c(OC)c4)OCC23)cc(OC)c1O", "note": "(centres unmarked) [Syringaresinol, syringaresinol]", "values": [
      {"measurement": "Skin color brightness (ΔL*)", "setting": "[1]", "result": "1.67 ± 0.25"},
      {"measurement": "UV-induced MMP-9 expression", "setting": "[2]", "result": "inhibiting the UV-induced increase of MMP-9 expression"},
      {"measurement": "UV-induced transepidermal water loss (TEWL)", "setting": "[3]; application", "result": "decrease in UV-induced transepidermal water loss"},
      {"measurement": "UV-induced transepidermal water loss (TEWL)", "setting": "[3]; oral administration", "result": "decrease in UV-induced transepidermal water loss"},
      {"measurement": "Free radical scavenging ability", "setting": "[4]", "result": "scavenge free radicals in a concentration-dependent manner and the effect is superior to that of vitamin C"},
      {"measurement": "Increase of skin wrinkles (Change %)", "setting": "[5]; application of 1% patch, control 230±35%", "result": "121±35", "unit": "%"},
      {"measurement": "Increase of skin wrinkles (Change %)", "setting": "[5]; oral administration 200 mg/kg, control 224±45%", "result": "123±25", "unit": "%"},
      {"measurement": "Expression of filaggrin", "setting": "[6]", "result": "increases the expression of filaggrin"}
    ]}
  ]
}
